Assay results as given in ChEMBL document CHEMBL4689842, “EUbOPEN Chemogenomics Library wave 1” (2021).

Test system: Fibroblast
Test: Incucyte cell viability with human fibroblast; further: filed as whole numbers so only -1 and 0 and 1 occur
Format: toxicity, cell-based
Settings: 10 µM, compound concentration 10 uM
[1] = 0 h, replicate number 1, timepoint 0 hours
[2] = 0 h, replicate number 2, timepoint 0 hours
[3] = 6 h, replicate number 1, timepoint 6 hours
[4] = 12 h, replicate number 1, timepoint 12 hours
[5] = 18 h, replicate number 1, timepoint 18 hours
[6] = 24 h, replicate number 1, timepoint 24 hours

| SMILES | Growth Rate [1] | Growth Rate [2] | Growth Rate [3] | Growth Rate [4] | Growth Rate [5] | Growth Rate [6] | Growth Rate (12 h, replicate number 2, timepoint 12 hours) | Growth Rate (18 h, replicate number 2, timepoint 18 hours) |
| --- | --- | --- | --- | --- | --- | --- | --- | --- |
| CCCS(=O)(=O)Nc1ccc(F)c(C(=O)c2c[nH]c3ncc(Cl)cc23)c1F [PLX-4720] | 1 | 0 | 0 | 0 | 0 | 0 |  |  |
| CN1CCN(C(=O)C(C)(C)c2ccc(C(=O)Nc3cn4cc(-c5cc(C(C)(C)C)cc(C(C)(C)C)c5)ccc4n3)cc2)CC1 [T3-CLK-N] |  | 0 |  |  | 1 | 1 |  |  |
| O=C(Cc1ccc(-c2ccc(OCCN3CCOCC3)cc2)cn1)NCc1ccccc1 [TIRBANIBULIN] |  |  | 0 | 0 | 0 | 0 |  |  |
| Cn1nc(C(F)(F)F)cc1-c1cnc(N2CCc3cc(S(=O)(=O)Nc4c(F)cc(Cl)cc4F)cc(N4CCCC4=O)c32)nc1 [TP-020] | 0 |  | 1 | 0 | 1 | 0 | 1 | 0 |
